Results: patent US6875761B2 (Eisai Co., Ltd., priority 1997, dated 2005)
Where a name gives a salt, the structure may show the parent alone.

Key:
serotonin 1A receptor = biological target: T1, serotonin 1A receptor (Rattus norvegicus, UniProt P19327); assay: Binding test on [3H] 8-hydroxy-dipropylaminotetralin, hippocampus receptor fraction; set-up: species or system SD rats; conditions: rat hippocampus receptor fraction, 0.5 nM [3H] 8-OH-DPAT, room temperature 30 min; read-out: 5HT1
T1 construct: To the receptor fraction of the hippocampus were added a test compound and 0.5 nM of [^3H]; 8-hydroxy-dipropylaminotetralin; from tissue; host or cells: rat hippocampus membrane fraction
T1 sequence (P19327 1-422): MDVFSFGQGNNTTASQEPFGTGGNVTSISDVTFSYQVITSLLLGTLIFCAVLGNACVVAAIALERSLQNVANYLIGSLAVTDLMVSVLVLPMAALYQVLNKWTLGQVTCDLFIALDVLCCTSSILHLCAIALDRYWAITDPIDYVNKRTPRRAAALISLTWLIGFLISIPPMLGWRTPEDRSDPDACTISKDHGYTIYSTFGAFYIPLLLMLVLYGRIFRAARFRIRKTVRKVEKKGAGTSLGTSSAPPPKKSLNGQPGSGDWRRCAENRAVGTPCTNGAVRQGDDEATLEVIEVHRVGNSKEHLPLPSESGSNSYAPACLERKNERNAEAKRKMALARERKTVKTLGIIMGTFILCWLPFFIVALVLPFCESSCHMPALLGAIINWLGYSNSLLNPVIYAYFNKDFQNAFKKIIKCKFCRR
Protocol: (1) Binding test on serotonin 1A, serotonin 2 and α1 adrenalin receptors
The following reagents were employed in this test. • 1) Serotonin binoxalate (5-HT binoxalate, mfd. by Sigma Chemical Co.). • 2) Methysergide maleate (mfd. by RBI).
As radioisotope-labeled compounds, use was made of the following reagents (mfd. by NEN). • 3) [^3H] 8-Hydroxy-dipropylaminotetralin (8-OH-DPAT). • 4) [^3H]
Methysergide maleate was dissolved in distilled water before using.
Use was made of SD rats aged 6 to 8 weeks.
The rats were sacrificed by dcapitation to extirpate the cerebra. The hippocampus and cortex were separated therefrom and employed in the binding tests respectively on the serotonin 1A receptor and the serotonin 2 receptor.
The hippocampus was mixed with 50 times (on the wet weight basis) as much as 0.32 M sucrose solution while the cortex was mixed with 10 times as much the same solution. Each mixture was homogenized by using a Teflon glass homogenizer and centrifuged as 1,000× g for 10 min. The supernatant thus obtained was further centrifuged at 20,000× g for 20 min. The obtained precipitate was re-suspended in 50 times (based on the initial wet weight; in the case of the hippocampus) or 10 times (in the case of the cortex) as much a 50 Tris hydrochloride (pH 7.4) and incubated at room temperature for 30 min. After centrifuging at 20,000× g for 20 min, the obtained precipitate was further suspended and centrifuged twice each in the same manner. The precipitate thus obtained was suspended in 100 times (based on the initial wet weight; in the case of the hippocampus) or 20 times (in the case of the cortex) as much a 50 mM Tris hydrochloride solution (pH 7.4) to thereby give a receptor fraction. This receptor fraction was stored at −80° C. until using.
To the receptor fraction of the hippocampus were added a test compound and 0.5 nM of [^3H] 8-hydroxy-dipropylaminotetralin and the resultant mixture was incubated at room temperature for 30 min. Next, it was filtered through a glass filter with the use of a cell harvester. After washing the glass filter with 50 mM Tris hydrochloride (pH 7.4), the radioactivity of the receptor was measured with a liquid scintillation counter. The binding detected in the presence of 10 μM of serotonin binoxalate was referred to as the nonspecific binding.
IC50 was calculated by the probit method, while Ki was determined in accordance with the following formula: Ki=IC50(1+c/Kd) wherein c represents the concentration of the radioisotope-labeled compound, and Kd represents the dissociation constant of the radioisotope-labeled compound with respect to the receptor determined by Scatchard's analysis.

serotonin 2 receptor = biological target: T2, serotonin 2 receptor (Rattus norvegicus, UniProt P14842); assay: Binding test on [3H] ketanserin, cerebral cortex receptor fraction; set-up: species or system SD rats; conditions: 0.3 nM [3H] ketanserin, 37° C. 15 min, read-out: 5HT2
T2 construct: To the receptor fraction of the cerebral cortex were added a test compound and 0.3 nM of [^3H] ketanserin; from tissue; host or cells: rat cerebral cortex membrane fraction
T2 sequence (P14842 whole entry): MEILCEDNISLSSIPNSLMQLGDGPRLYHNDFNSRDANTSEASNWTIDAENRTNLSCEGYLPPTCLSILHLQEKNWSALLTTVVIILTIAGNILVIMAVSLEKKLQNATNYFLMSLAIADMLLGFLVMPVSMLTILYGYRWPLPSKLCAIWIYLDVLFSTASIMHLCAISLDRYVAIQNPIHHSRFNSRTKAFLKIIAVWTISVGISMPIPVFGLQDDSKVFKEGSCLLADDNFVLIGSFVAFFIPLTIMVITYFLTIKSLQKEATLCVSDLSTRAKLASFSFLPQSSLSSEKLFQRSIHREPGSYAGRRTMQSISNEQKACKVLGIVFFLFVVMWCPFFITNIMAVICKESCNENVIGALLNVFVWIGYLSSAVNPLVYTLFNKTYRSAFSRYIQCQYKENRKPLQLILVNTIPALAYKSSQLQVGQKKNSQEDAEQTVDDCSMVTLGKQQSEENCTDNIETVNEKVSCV

Row | SMILES | Ki (serotonin 1A receptor) | Ki (serotonin 2 receptor)
1 | CCN1CCN(c2nc(-c3cccc(OCCO)c3)cc3ccsc23)CC1 [Example 258, 7-(1-ethylpiperazin-4-yl)-5-[3-(2-hydroxyethoxy)phenyl]thieno[2,3-c]pyridine Dihydrochloride] | 24.7 nM | 35.1 nM
2 | CCN1CCN(c2nc(-c3ccc(OCC(C)(C)O)cc3)cc3ccsc23)CC1 [Example 260, 7-(1-Ethylpiperazin-4-yl)-5-[4-(2-hydroxy-2-methylpropoxy)phenyl]thieno[2,3-c]pyridine dihydrochloride] | 67.8 nM | 0.54 nM
3 | CCN1CCN(c2nc(-c3ccc(OC)c(CCCO)c3)cc3ccsc23)CC1 [Example 261, 5-[3-(3-hydroxypropyl)-4-methoxyphenyl]-7-(4-ethylpiperazin-1-yl)thieno[2,3-c]pyridine Oxalate] | 53.7 nM | 0.06 nM
4 | CCN1CCN(c2nc(-c3ccc(CCCO)c(C#N)c3)cc3ccsc23)CC1 [Example 262, 5-[4-(3-hydroxypropyl)-3-cyanophenyl]-7-(4-ethylpiperazin-1-yl)thieno[2,3-c]pyridine Oxalate] | 9.04 nM | 0.25 nM
5 | CCN1CCN(c2nc(-c3ccc(N4CCOCC4)nc3)cc3ccsc23)CC1 [Example 263, 5-[2-(4-morpholinyl)pyridin-5-yl]-7-(4-ethylpiperazin-1-yl)thieno[2,3-c]pyridine Hydrochloride] | 6.42 nM | 0.89 nM
6 | CCN1CCN(c2nc(-c3ccc(N4CCSCC4)nc3)cc3ccsc23)CC1 [Example 264, 5-[2-(4-thiomorpholinyl)pyridin-5-yl]-7-(4-ethylpiperazine-1-yl)thieno[2,3-c]pyridine Hydrochloride] | 61.3 nM | 3.34 nM
7 | CCN1CCN(c2nc(-c3ccc(N4CCC(O)CC4)nc3)cc3ccsc23)CC1 [Example 265, 5-[2-(4-hydroxypiperidin-1-yl)pyridin-5-yl]-7-(4-ethylpiperazin-1-yl)thieno[2,3-c]pyridine Hydrochloride] | 9.73 nM | 114 nM
8 | CCN1CCN(c2nc(-c3ccc(C4=CCOCC4)cc3)cc3ccsc23)CC1 [Example 266, 5-[4-(5,6-dihydro-2H-pyran-4-yl)phenyl]-7-(4-ethylpiperazin-1-yl)thieno[2,3-c]pyridine Hydrochloride] | 97.3 nM | 13.8 nM
9 | CCN1CCN(c2nc(-c3ccc(OC(C)COC)nc3)cc3ccsc23)CC1 (stereo not shown) [Example 267, 5-[2-(2-methoxyethoxy-2-methyl)pyridin-5-yl]-7-(4-ethylpiperazin-1-yl)thieno[2,3-c]pyridine Hydrochloride] | 10.4 nM | 68.7 nM
10 | CCN1CCN(c2nc(-c3ccc(OCCO)nc3)cc3ccsc23)CC1 [Example 268, 5-[2-(2-hydroxyethoxy)pyridin-5-yl]-7-(4-ethylpiperazin-1-yl)thieno[2,3-c]pyridine Oxalate] | 16.5 nM | 86 nM
11 | CCN1CCN(c2nc(-c3ccc(OCCOC)nc3)cc3ccsc23)CC1 [Example 269, 5-[2-(2-methoxyethoxy)pyridin-5-yl]-7-(4-ethylpiperazin-1-yl)-thieno[2,3-c]pyridine hydrochloride] | 15.5 nM | 58.4 nM
12 | CCN1CCN(c2nc(-c3ccc(C4=CCC(O)CC4)cc3)cc3ccsc23)CC1 (stereo not shown) [Example 270, 5-[4-(4-hydroxycyclohexen-1-yl)phenyl]-7-(4-ethylpiperazin-1-yl)thieno[2,3-c]pyridine hydrochloride] | 43 nM | 30.3 nM
13 | CCN1CCN(c2nc(-c3ccc(C(=O)CC(C)C)cc3)cc3ccsc23)CC1 [Example 272, 7-(1-ethylpiperazin-4-yl)-5-[4-(3-methylbutanoyl)phenyl]thieno[2,3-c]pyridine dihydrochloride] | 160 nM | 22.4 nM
14 | CCN1CCN(c2nc(-c3ccc(C(=O)NC4CCCCC4)cc3)cc3ccsc23)CC1 [Example 273, dihydrochloride] | 51.4 nM | 9.11 nM
15 | COc1ccc(-c2cc3ccsc3c(N3CCN(CCO)CC3)n2)cc1 [Example 276, 5-(4-methoxyphenyl)-7-[4-(2-hydroxyethyl)piperazin-1-yl]thieno[2,3-c]pyridine hydrochloride] | 160 nM | 0.45 nM
16 | CCN1CCN(c2nc(-c3ccc(OC)cc3)cc3cscc23)CC1 [Example 277, 4-(4-ethylpiperazin-1-yl)-6-(4-methoxyphenyl)thieno[3,4-c]pyridine oxalate] | 71.4 nM | 52.1 nM
17 | CCN1CCN(c2nc(-c3ccc(OCCO)cc3)cc3cscc23)CC1 [Example 278, 4-(4-ethylpiperazin-1-yl)-6-[4-(2-hydroxyethoxy)phenyl]thieno-[3,4-c]pyridine oxalate] | 41.3 nM | 4.61 nM
18 | CN1CCN(c2nc(-c3ccc(OCCO)cc3)cc3sccc23)CC1 [Example 279, 4-(4-methylpiperazin-1-yl)-6-[4-(2-hydroxyethoxy)phenyl]thieno[3,2-c]pyridine hydrochloride] | 76.4 nM | 1.44 nM
19 | CCC(O)c1ccc(-c2cc3sccc3c(N3CCN(CC)CC3)n2)cc1 (stereo not shown) [Example 282, 4-(4-ethylpiperazin-1-yl)-6-[4-(1-hydroxypropyl)phenyl]thieno-[3,2-c]pyridine oxalate] | 10.8 nM | 6.46 nM
20 | CCCC(O)c1ccc(-c2cc3sccc3c(N3CCN(CC)CC3)n2)cc1 (stereo not shown) [Example 283, 4-(4-ethylpiperazin-1-yl)-6-[4-1-hydroxybutyl)phenyl]thieno[3,2-c]pyridine oxalate] | 5.71 nM | 6.43 nM
21 | CCN1CCN(c2nc(-c3cccc(OCCO)c3)cc3sccc23)CC1 [Example 284, 4-(1-ethylpiperazin-4-yl)-6-[3-(2-hydroxyethoxy)phenyl]thieno-[3,2-c]pyridine dihydrochloride] | 91.9 nM | 75.9 nM
22 | CCN1CCN(c2nc(-c3ccc(CCC(C)O)cc3)cc3sccc23)CC1 (stereo not shown) [Example 285, 4-(1-ethylpiperazin-4-yl)-6-[4-(3-hydroxybutyl)phenyl]thieno[3,2-c]pyridine hydrochloride] | 22.2 nM | 1.96 nM
23 | CCN1CCN(c2nc(-c3ccc(OCC(C)O)cc3)cc3sccc23)CC1 (stereo not shown) [Example 287, 4-(4-ethylpiperazin-1-yl)-6-[4-(2-hydroxypropoxy)phenyl]thieno[3,2-c]pyridine] | 27.9 nM | 0.87 nM
24 | CN1CCN(c2nc(-c3ccc(OCC(C)(C)O)cc3)cc3sccc23)CC1 [Example 288, 6-[4-(2-methyl-2-hydroxypropoxy)phenyl]-4-(4-methylpiperazin-1-yl)thieno[3,2-c]pyridine hydrochloride] | 80.9 nM | 0.14 nM
25 | CCN1CCN(c2nc(-c3ccc(OCC(C)(C)O)cc3)cc3sccc23)CC1 [Example 290, 6-[4-(2-methyl-2-hydroxypropoxy)phenyl]-4-(4-ethylpiperazin-1-yl)thieno[3,2-c]pyridine dihydrochloride] | 54.7 nM | 1.35 nM
26 | CCN1CCN(c2nc(-c3ccc(CCC(C)(C)O)cc3)cc3sccc23)CC1 [Example 291, 4-[4-ethylpiperazin-1-yl)-6-[4-(3-hydroxy-3-methylbutyl)phenyl]thieno[3,2-c]pyridine dihydrochloride] | 43.3 nM | 1.44 nM
